{"source": "patent US9296728B2", "about": "“Therapeutic compounds” (Regents of the University of Minnesota, priority 2012, dated 2016)", "key": {"[1]": {"test": "Toxicity study in healthy ICR mice (body weight, WBC, RBC)", "format": "in vivo", "conditions": "for RBC ± SEM / WBC ± SEM: end of day 22", "protocol": "60 ICR mice weighing ˜27 grams were randomly assigned into 5 groups (12 animals, 6 male and 6 female per group), one group being the control group without any drug administration (food only). The drugs were administered twice daily by P.O. or I.P. Group 1 and 3 were administered orally with 50 mg/Kg of Compound 20 and 18 mg/Kg of Compound 14 respectively. Group 2 and 4 mice were injected intraperitoneally with 6.67 mg/Kg of Compound 20 and 5.3 mg/Kg of Compound 14 (dissolved in water) respectively. The body weights of mice were recorded daily for 22 days. At the end of the 22nd day, 3 mice were randomly selected from each group and their blood samples were collected for detailed analysis of white blood cell (WBC) and red blood cell (RBC) counts. The mice were then euthanized with CO2."}, "[2]": {"test": "Pharmacokinetic study of Compound 20 in ICR mice", "format": "in vivo", "conditions": "for CLz/F / t1/2Z: mean", "protocol": "60 male ICR mice were split into two groups of 30. In each group the mice were prescribed Compound 20 at a dosage of 100 mg/kg. This dose was administered orally in group 1 and intraperitoneally in group 2. Each group of 30 mice was subdivided into groups of 3 mice. Blood samples were taken through orbital sinus method at 0, 0.083, 0.25, 0.5, 1, 2, 4, 6, 8 and 24 hours after administering Compound 20 and taken into tubes with anticoagulant at room temperature at least 30 minutes prior to centrifugation, then centrifuged at 10000 rpm for 5 minutes at 4° C. to separate plasma from the blood samples. Following centrifugation, the resulting serum was transferred to clean tubes and stored frozen at −80° C. Immediately following the blood samples, the brain tissue samples of mice were removed and stored frozen at −80° C.\nA 20% brain homogenate was prepared by weighing brain tissue sample and adding, corresponding volume of saline into the manual homogenator. The dilution factor was 5 (w/v=1 g: 4 mL). The brain tissue sample was grinded slowly and repeatedly until it has become homogenous.\nPlasma and Brain samples were centrifuged at 15777×g for 5 minutes, and 180 ul of supernatant was placed in a 96-well assay plate. To each well, 200 ul of a 50% ACN/H2O was added and the plates were shake-mixed for 3 minutes. 5 ul aliquots of each well were then analyzed using LC-MS/MS.\nThe standard non-compartmental model was used to generate the pharmacokinetic parameters: Cmax, Tmax, t1/2, AUC0->last, AUC0->inf, CL/F, and Vz/F. The maximum plasma concentration, Cmax, and its corresponding time, Tmax were directly recorded. Elimination rate constant kel was determined by linear regression of the terminal points of the semi-log plot of concentration against time. Elimination half-life was calculated by the formula; t12=0.693/kel. The Area Under the curve value from time 0 to 24 hours was defined as AUCt->last and calculated using the linear trapezoidal rule."}}, "note": "Values joined by “and” are separate entries in the source; they are usually repeats but may differ in a detail not shown here. Equal values may be shown once. Read-outs that look alike come from different tables or passages of the source.", "data": [{"smiles": "COc1cc(N(c2ccccc2)c2ccccc2)ccc1/C=C(\\C#N)C(=O)O", "note": "[Compound 20]", "values": [{"measurement": "Weight in grams (Day 0)", "setting": "[1]; 6.67 mg/kg i.p. twice daily", "value": 26.98, "unit": "grams"}, {"measurement": "Weight in grams (Day 22)", "setting": "[1]; 6.67 mg/kg i.p. twice daily", "value": 33.54, "unit": "grams"}, {"measurement": "RBC ± SEM", "setting": "[1]; 6.67 mg/kg i.p. twice daily", "value": "1.82 ± 0.05 10^13/L"}, {"measurement": "WBC ± SEM", "setting": "[1]; 6.67 mg/kg i.p. twice daily", "value": "3.83 ± 0.38 10^10/L"}, {"measurement": "Weight in grams (Day 0)", "setting": "[1]; 50 mg/kg p.o. twice daily", "value": 26.91, "unit": "grams"}, {"measurement": "Weight in grams (Day 22)", "setting": "[1]; 50 mg/kg p.o. twice daily", "value": 32.61, "unit": "grams"}, {"measurement": "RBC ± SEM", "setting": "[1]; 50 mg/kg p.o. twice daily", "value": "1.75 ± 0.06 10^13/L"}, {"measurement": "WBC ± SEM", "setting": "[1]; 50 mg/kg p.o. twice daily", "value": "4.10 ± 0.3 10^10/L"}, {"measurement": "Plasma Concentration, individual animals (1#, 2#, 3#)", "setting": "[2]; 100 mg/kg i.p., 0 h", "value": 0, "unit": "ng/mL"}, {"measurement": "Plasma Concentration, individual animals (1#, 2#, 3#)", "setting": "[2]; 100 mg/kg i.p., 0.083 h", "value": "18800 ng/mL and 33300 ng/mL and 40400 ng/mL"}, {"measurement": "Plasma Concentration, individual animals (1#, 2#, 3#)", "setting": "[2]; 100 mg/kg i.p., 0.25 h", "value": "78300 ng/mL and 29400 ng/mL and 60100 ng/mL"}, {"measurement": "Plasma Concentration, individual animals (1#, 2#, 3#)", "setting": "[2]; 100 mg/kg i.p., 0.5 h", "value": "30400 ng/mL and 30200 ng/mL"}, {"measurement": "Plasma Concentration, individual animals (1#, 2#, 3#)", "setting": "[2]; 100 mg/kg i.p., 1 h", "value": "45600 ng/mL and 26900 ng/mL"}, {"measurement": "Plasma Concentration, individual animals (1#, 2#, 3#)", "setting": "[2]; 100 mg/kg i.p., 2 h", "value": "27800 ng/mL and 38900 ng/mL"}, {"measurement": "Plasma Concentration, individual animals (1#, 2#, 3#)", "setting": "[2]; 100 mg/kg i.p., 4 h", "value": "24000 ng/mL and 26400 ng/mL"}, {"measurement": "Plasma Concentration, individual animals (1#, 2#, 3#)", "setting": "[2]; 100 mg/kg i.p., 6 h", "value": "14200 ng/mL and 3980 ng/mL and 5360 ng/mL"}, {"measurement": "Plasma Concentration, individual animals (1#, 2#, 3#)", "setting": "[2]; 100 mg/kg i.p., 8 h", "value": "3160 ng/mL and 2590 ng/mL"}, {"measurement": "Plasma Concentration, individual animals (1#, 2#, 3#)", "setting": "[2]; 100 mg/kg i.p., 24 h", "value": "41.8 ng/mL and 249 ng/mL and 70.9 ng/mL"}, {"measurement": "CLz/F", "setting": "[2]; 100 mg/kg i.p., plasma", "value": 8.32, "unit": "mL/min/kg"}, {"measurement": "t1/2Z", "setting": "[2]; 100 mg/kg i.p., plasma", "value": 3.19, "unit": "h"}, {"measurement": "pharmacokinetics parameters (overall assessment)", "setting": "[2]; 100 mg/kg p.o. and i.p.", "value": "satisfactory"}, {"measurement": "Plasma Concentration, individual animals (1#, 2#, 3#)", "setting": "[2]; 100 mg/kg p.o., 0 h", "value": 0, "unit": "ng/mL"}, {"measurement": "Plasma Concentration, individual animals (1#, 2#, 3#)", "setting": "[2]; 100 mg/kg p.o., 0.083 h", "value": "4050 ng/mL and 4040 ng/mL"}, {"measurement": "Plasma Concentration, individual animals (1#, 2#, 3#)", "setting": "[2]; 100 mg/kg p.o., 0.25 h", "value": "11300 ng/mL and 6400 ng/mL"}, {"measurement": "Plasma Concentration, individual animals (1#, 2#, 3#)", "setting": "[2]; 100 mg/kg p.o., 0.5 h", "value": "19100 ng/mL and 20700 ng/mL and 6580 ng/mL"}, {"measurement": "Plasma Concentration, individual animals (1#, 2#, 3#)", "setting": "[2]; 100 mg/kg p.o., 1 h", "value": "3610 ng/mL and 4830 ng/mL and 12700 ng/mL"}, {"measurement": "Plasma Concentration, individual animals (1#, 2#, 3#)", "setting": "[2]; 100 mg/kg p.o., 2 h", "value": "3270 ng/mL and 1380 ng/mL and 4790 ng/mL"}, {"measurement": "Plasma Concentration, individual animals (1#, 2#, 3#)", "setting": "[2]; 100 mg/kg p.o., 4 h", "value": "2880 ng/mL and 5160 ng/mL and 1240 ng/mL"}, {"measurement": "Plasma Concentration, individual animals (1#, 2#, 3#)", "setting": "[2]; 100 mg/kg p.o., 6 h", "value": "1470 ng/mL and 2230 ng/mL and 3720 ng/mL"}, {"measurement": "Plasma Concentration, individual animals (1#, 2#, 3#)", "setting": "[2]; 100 mg/kg p.o., 8 h", "value": "5780 ng/mL and 2370 ng/mL and 3880 ng/mL"}, {"measurement": "Plasma Concentration, individual animals (1#, 2#, 3#)", "setting": "[2]; 100 mg/kg p.o., 24 h", "value": "111 ng/mL and 19.3 ng/mL and 12.8 ng/mL"}, {"measurement": "CLz/F", "setting": "[2]; 100 mg/kg p.o., plasma", "value": 26, "unit": "mL/min/kg"}, {"measurement": "t1/2Z", "setting": "[2]; 100 mg/kg p.o., plasma", "value": 3.03, "unit": "h"}, {"measurement": "concentration at 0 h", "setting": "[2]; male, ICR, mouse, plasma, ip, 100 mg/kg, 100 mg/kg i.p., 0 h, n = 3, read-out: Plasma Concentration, Mean", "value": 0, "unit": "ng/mL"}, {"measurement": "concentration at 0 h", "setting": "[2]; male, ICR, mouse, plasma, ip, 100 mg/kg, 100 mg/kg i.p., 0 h, read-out: Plasma Concentration, individual animals (1#, 2#, 3#)", "value": 0, "unit": "ng/mL"}, {"measurement": "concentration at 0.083 h", "setting": "[2]; male, ICR, mouse, plasma, ip, 100 mg/kg, 100 mg/kg i.p., 0.083 h, n = 3, read-out: Plasma Concentration, Mean", "value": 30800, "unit": "ng/mL"}]}]}
